Source: publication PMC12751141, “Disrupting α-Synuclein–ClpP interaction restores mitochondrial function and attenuates neuropathology in Parkinson’s disease models” (Molecular Neurodegeneration, 2025)
“Also recorded” adds a separate entry of the source.

What was measured:
[1] = system: mThy1-hSNCA mice; test: Y-maze test in mThy1-hSNCA mice; type: in vivo, mouse
Procedure: (§1) C57BL/6 N-Tg (Thy1-SNCA)15Mjff/J (JAX: 017682) breeders (C57Bl/6NJ genetic background) were purchased from Jackson Laboratories. The mice were mated, bred, and genotyped in the animal facility of Case Western Reserve University. All mice were maintained at a 12-hour light/dark cycle (on 6 am, off 6 pm). All randomization and peptide treatments in mThy1-hSNCA mice were prepared by an experimenter not associated with the behavioral and neuropathology analysis. Only male mice were used in the study. mThy1-hSNCA transgenic mice and their age-matched WT littermates were implanted with a 28-day subcutaneous osmotic pump (Alzet, Cupertino CA, Model 2004) containing either TAT control peptide or CS2 peptide, which delivered the peptides at indicated rate (1 or 3 or 10 mg/kg/day). The pump was replaced once every four weeks. All mice were sacrificed at age of 10-month for neuropathology assessment.
On the test day, mice at 6-month-old were brought to the testing room one hour before performing the Y-maze test to allow habituation. The mice were placed in the middle of the Y-maze and allowed to explore the three arms for 4-min. During exploration, the arm entries were recorded. The equipment was cleaned after every test to avoid odor disturbance. Spontaneous alternation was defined as a successive entry into three different arms on overlapping triplet sets.
Fig. 7 CS2 treatment is protective in mThy1-hSNCA mouse model of PD. (A) Experimental schematic of CS2 treatment in mThy1-hSNCA (Thy1) mouse model of PD: TAT or CS2 peptide was administered (3 mg/kg/day) via subcutaneous osmotic pump (O.P.) in Thy1 mice and their wild-type (WT) littermates starting from age of 4-month till 10-month. […] (D) Representative images of pS129-αSyn staining in substantia nigra of WT and Thy1 mice treated with TAT or CS2 peptide (scale bar = 100 μm). […] (G) Representative images of ClpP and tyrosine […] (TH) staining on the brain coronal sections from TAT or CS2-treated Thy1 mice and their WT littermates (scale bar = 100 μm). […]

[2] = system: ClpP (HEK293T cells); test: ClpP protein level, western blot, HEK293T cells; type: cell-based; conditions: WT or A53T αSyn overexpression; 30 min pretreatment; n = 4–5 (CS1: n = 4)
[3] = system: mThy1-hSNCA mice (midbrain); test: Midbrain western blot / co-immunoprecipitation in mThy1-hSNCA mice; type: in vivo, mouse
Procedure: Tissues were homogenized and incubated on ice for 30 min in total lysis buffer (50 mM Tris–HCl, pH 7.5, 150 mM NaCl, 1% Triton X-100, and protease inhibitor). Tissues were then spun at 12,000 rpm for 10 min at 4 °C; the resulting supernatant was triton-soluble fraction. The pellet was further suspended in total lysis buffer with 1% SDS, sonicated and incubated at 100 °C for 3 min, and followed by 20-s vortex. After two more repeats of 100 °C incubation and vortex, the solution was spun at 12,000 rpm for 10 min at 4 °C; the resulting supernatant was triton-insoluble fraction.
Protein concentrations were measured using the Bradford assay. Proteins (30 µg) were then resuspended in Laemmni buffer, loaded on sodium dodecyl sulfate-polyacrylamide gel electrophoresis gels, and transferred to nitrocellulose membranes. The membranes were probed with the indicated antibodies and visualized by electrochemiluminescence.
as §1
Cells or tissues were lysed in total lysis buffer (50mM Tris-HCl, pH 7.5, 150mM NaCl, 1% Triton X-100, and protease inhibitor). Total protein lysates (800 µg) were incubated with the indicated antibodies overnight at 4 °C followed by the addition of protein A/G beads (sc-2003, Santa Cruz) for 2 h at 4 °C. Various recombinant αSyn and Clpp (500 ng) were incubated in in vitro interaction buffer (20mM Tris-HCl pH 7.5, 100mM KCl, 2mM MgCl2 and 0.1% Triton-X100) for 30 min at room temperature, and then incubated with indicated antibodies overnight at 4 °C followed by the addition of protein A/G beads for 2 h at 4 °C. The beads with immuno-precipitates were pulled down at 4000 g and washed four times with total lysis buffer/in vitro interaction buffer in the presence of 0.1% Triton X-100 and were analyzed by western blot analysis.

[4] = system: SH-SY5Y cells; test: Mitochondrial ROS (Mito-SOX) in SH-SY5Y cells; type: cell-based
Procedure: Cells cultured on coverslips or 24-well plates were washed with DPBS and then incubated with 5 µM Mito-SOX™ Red (Invitrogen, M36008), a mitochondrial superoxide indicator, for 10 min at 37 °C. For cells cultured on coverslips, the images were visualized by microscope, and quantification of images was then carried out using NIH ImageJ software. At least 100 cells per group were counted in the analysis.
The bimolecular fluorescence was examined 24-hour after transfection (n = 3, one-way ANOVA with Tukey’s post-hoc test, scale bar = 30 μm). (D) Quantification of the concentration (ng/ml) of extracellular αSyn monomer and oligomer, and intracellular αSyn oligomer in Tet-inducible SH-SY5Y cells that were pre-treated with TAT or CS2 peptide 30-minute before adding doxycycline (Dox) to induce αSyn expression. The concentration of αSyn species was determined by ELISA (n = 4, one-way ANOVA with Tukey’s post-hoc test; data are mean ± SEM). (E) Representative images of Mito-SOX staining in SH-SY5Y cells that were pre-treated with TAT or CS2 peptide and transfected with split Venus-αSyn vectors. Mitochondrial ROS production was determined by Mito-SOX staining after 24-hour transfection (n = 4, two-tailed Student’s t test, scale bar = 30 μm).

[5] = 3 and 10 mg/kg/day s.c., 8 weeks, n = 3 mice/group

CC(C)[C@H](NC(=O)CNC(=O)CNC(=O)CCCCCNC(=O)[C@H](CCCNC(=N)N)NC(=O)[C@H](CCCNC(=N)N)NC(=O)[C@H](CCCNC(=N)N)NC(=O)[C@H](CCC(N)=O)NC(=O)[C@H](CCCNC(=N)N)NC(=O)[C@H](CCCNC(=N)N)NC(=O)[C@H](CCCCN)NC(=O)[C@H](CCCCN)NC(=O)[C@H](CCCNC(=N)N)NC(=O)CNC(=O)[C@@H](N)Cc1ccc(O)cc1)C(=O)N[C@H](C(=O)N[C@H](C(=O)N[C@@H](C)C(=O)O)[C@@H](C)O)C(C)C [CS2, TAT-C6-GGVVTA]
cognitive activity in Y-maze ([1]; 3 mg/kg/day s.c., age of 6-month, n = 15 mice/group, vs TAT): improved cognitive activity
spontaneous alternation, dose dependence ([1]; 1, 3 or 10 mg/kg/day s.c. osmotic mini pump, 8 weeks from 4 months, tested at 6 months, n = 3 mice/group): improved spontaneous alternation behavior in a dose-dependent manner
spontaneous alternation, 3 vs 10 mg/kg/day ([1]; s.c., 8 weeks, comparison of 3 and 10 mg/kg/day): no significant difference between 3 and 10 mg/kg/day
ClpP protein level, HEK293T [2]: significantly restored ClpP protein levels
ClpP–αSyn interaction in midbrain ([3]; 3 mg/kg/day s.c., anti-ClpP IP, n = 3 mice/group): abolish the interaction between ClpP and αSyn
other mitochondrial matrix proteins in midbrain ([3]; 3 mg/kg/day s.c., western blot of LonP, ClpX, n = 3–5 mice/group): without affecting other mitochondrial matrix proteins
ClpP expression in midbrain [3, 5]: restored ClpP expression in the midbrain
detergent-insoluble αSyn in midbrain [3, 5]: reduced levels of soluble pS129-αSyn and detergent-insoluble αSyn
soluble pS129-αSyn in midbrain [3, 5]: reduced levels of soluble pS129-αSyn
ClpP–αSyn interaction, 3 vs 10 mg/kg/day ([3]; s.c., comparison with 10 mg/kg/day): without disparity from 10 mg/kg/day
mitochondrial ROS, ClpP-deficient cells ([4]; ClpPsh SH-SY5Y overexpressing αSyn, effect of reducing ROS, n = 13 areas/group): no protective effect; also recorded: not observed in ClpP-deficient cells
mitochondrial ROS (Mito-SOX intensity) ([4]; SH-SY5Y expressing VN/VC-αSyn (CS1: WT αSyn), Mito-SOX 5 µM, vs TAT): significant reduction of the fluorescence intensity of Mito-SOX
